In paper PMC7727793, “Aggregation Behavior, Antibacterial Activity and Biocompatibility of Catanionic Assemblies Based on Amino Acid-Derived Surfactants” (International Journal of Molecular Sciences, 2020):
Entries after “also recorded” stand apart in the source; their conditions may differ.

Experiments:
Solubility in water = type: physicochemical
[1] = system: all microorganisms tested; test: Broth microdilution MIC, statement for all microorganisms tested; type: cell-based
Description: Antibacterial assays were conducted in vitro using the broth microdilution method. The minimum inhibitory concentration (MIC) is the smallest concentration of antibacterial agent at which bacterial growth is not observed. MIC values were determined for 4 Gram-positive bacteria (methicillin-resistant Staphylococcus aureus ATCC 43300 (MRSA), Bacillus subtilis ATCC 6633, Kocuria rhizophila 9341, Staphylococcus epidermidis ATCC 12228), 3 Gram-negative bacteria (Klebsiella pneumoniae ATCC 4532, Pseudomonas aeruginosa ATCC 27853, Escherichia coli ATCC 8739) and the fungal strain, Candida albicans ATCC 10231. Frozen stocks of bacteria were incubated on Muller Hinton agar plates for 24 h at 37 °C. From this culture, a bacterial suspension of 1 × 10^6 colony forming units CFU/mL was prepared in MHB (pH = 7.3). Two dilutions of pure surfactants and their binary mixtures were prepared in MH broth to obtain a final concentration ranging from 4 to 454 μM in the microtiter plates.
Then, 10 μL of nutrient broth culture of each microorganism was added to achieve a final density of ca. 5 × 10^5 CFU/mL. The cultures were incubated for 24 h at 37 °C. Every assay was repeated three times.

- MIC ([1]; K. rhizophila, B. subtilis, S. epidermidis, S. aureus, K. pneumoniae, E. coli, P. aeruginosa, C. albicans, higher concentrations precipitated, read-out: MIC for all microorganisms tested): > 113 µM
Compound: CCCCCCCCCCCC(=O)N[C@@H](CCCCNC(C)=O)C(=O)O [C12C3L, N^α-lauroyl-N^εacetyl lysine]
- Solubility in water (Solubility in water): too low to determine a CMC; also recorded: not soluble in water
- Antibacterial activity (in words) ([1]; tested microorganisms): did not show activity
